The record followed here is paper PMC3942743 (Toxins, 2014).

SMILES strings stand for the structures. Structures can show the parent of a compound that is named as a salt.

In this data set the target is uremic plasma (Homo sapiens, UniProt P02768). In words: Binding capacity of uremic plasma for IS at different NaCl concentrations. In kind it is in vitro ADME.
Sequence of uremic plasma (P02768 25-609): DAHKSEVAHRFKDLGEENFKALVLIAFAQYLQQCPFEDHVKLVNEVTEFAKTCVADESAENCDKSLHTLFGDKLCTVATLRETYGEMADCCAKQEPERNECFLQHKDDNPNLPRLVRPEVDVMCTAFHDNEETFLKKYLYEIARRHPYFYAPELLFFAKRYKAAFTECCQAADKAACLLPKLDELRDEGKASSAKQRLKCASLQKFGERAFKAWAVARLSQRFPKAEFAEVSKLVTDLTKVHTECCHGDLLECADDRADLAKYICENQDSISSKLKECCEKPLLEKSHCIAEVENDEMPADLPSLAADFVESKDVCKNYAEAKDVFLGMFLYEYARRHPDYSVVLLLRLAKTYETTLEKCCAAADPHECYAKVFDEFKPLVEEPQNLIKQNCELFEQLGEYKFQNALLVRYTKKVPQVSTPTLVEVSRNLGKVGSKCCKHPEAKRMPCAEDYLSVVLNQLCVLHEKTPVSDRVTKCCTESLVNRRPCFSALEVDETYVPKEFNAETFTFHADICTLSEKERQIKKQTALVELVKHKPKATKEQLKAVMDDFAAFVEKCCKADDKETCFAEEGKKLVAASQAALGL

Procedure: After having received approval from the competent institutional review board (ethics committee of the University Hospital Würzburg, code AZ 64/12), written informed consent was obtained from 15 end-stage renal disease patients on maintenance hemodialysis in a single dialysis center (Dialysis center, Elsenfeld, Germany). Blood (7.5 mL) was collected in EDTA-tubes from each patient before dialysis.

For `Cc1ccc(OS(=O)(=O)O)cc1` [p-cresyl sulfate], the protein bound fraction ([…] NaCl, uremic plasma 1:2 diluted, native toxin) was 91% ± 2%. In addition, for the setting “plasma of hemodialysis patients before dialysis”, the “total (native) toxin concentration in uremic plasma” value stood at 90 ± 28 µM.
